Values quoted from earlier work in US20100040600A1, “Agents for Promoting the Growth of Hematopoietic Stem Cells” (CHUGAI SEIYAKU KABUSHIKI KAISHA, priority 2006, published 2010).
Numbered stars: 1 amine (or outer) side, 2 acyl side, 3 side chain; on linkers, the order of the positions; unused ones are H or OH. Bridge positions count the residues as written; N and C are the ends. Square brackets hold non-standard residues; d marks the D form. Peptide text beside a SMILES is read from it. I, II: the chains in the order shown. 2Nal = N[CH](Cc1ccc2ccccc2c1)C(=O)O; X1 = NC(N)NCCCC(N[*:1])C(=O)[*:2]; NMeI = CC[CH](C)[CH](NC)C(=O)O; Sar = CNCC(=O)O

Key:
dog receptors = conditions: cited from earlier work
mouse receptors = biological target: T1, mouse receptors (Mus musculus, UniProt Q08351); conditions: cited from earlier work
T1 sequence (Q08351 26-625): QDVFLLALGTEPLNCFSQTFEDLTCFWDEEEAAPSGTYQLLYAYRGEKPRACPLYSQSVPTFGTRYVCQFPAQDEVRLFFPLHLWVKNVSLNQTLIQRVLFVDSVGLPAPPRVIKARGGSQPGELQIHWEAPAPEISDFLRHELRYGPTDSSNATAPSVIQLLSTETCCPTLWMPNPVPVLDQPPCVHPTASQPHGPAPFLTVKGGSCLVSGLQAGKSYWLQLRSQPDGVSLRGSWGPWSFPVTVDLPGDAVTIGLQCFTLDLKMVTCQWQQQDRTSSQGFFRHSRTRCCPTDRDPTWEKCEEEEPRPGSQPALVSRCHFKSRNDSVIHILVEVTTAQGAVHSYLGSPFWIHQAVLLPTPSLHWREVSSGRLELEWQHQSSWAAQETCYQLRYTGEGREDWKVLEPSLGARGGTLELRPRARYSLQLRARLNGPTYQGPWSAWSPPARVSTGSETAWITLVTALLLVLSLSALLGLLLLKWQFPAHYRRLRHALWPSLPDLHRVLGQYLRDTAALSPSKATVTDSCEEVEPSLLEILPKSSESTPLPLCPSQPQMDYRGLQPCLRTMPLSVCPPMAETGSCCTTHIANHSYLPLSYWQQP

rat receptors = conditions: cited from earlier work
c-mpl [1] = conditions: cited from earlier work
[2] = cited from earlier work
c-mpl [3] = conditions: cited from earlier work; remark: listed apart in the source
c-mpl [4] = conditions: cited from earlier work; remark: listed apart in the source
[5] = biological target: T2, hu c-mpl transmembrane domain (Homo sapiens, UniProt P40238); conditions: cited from earlier work
T2 sequence (P40238 26-635): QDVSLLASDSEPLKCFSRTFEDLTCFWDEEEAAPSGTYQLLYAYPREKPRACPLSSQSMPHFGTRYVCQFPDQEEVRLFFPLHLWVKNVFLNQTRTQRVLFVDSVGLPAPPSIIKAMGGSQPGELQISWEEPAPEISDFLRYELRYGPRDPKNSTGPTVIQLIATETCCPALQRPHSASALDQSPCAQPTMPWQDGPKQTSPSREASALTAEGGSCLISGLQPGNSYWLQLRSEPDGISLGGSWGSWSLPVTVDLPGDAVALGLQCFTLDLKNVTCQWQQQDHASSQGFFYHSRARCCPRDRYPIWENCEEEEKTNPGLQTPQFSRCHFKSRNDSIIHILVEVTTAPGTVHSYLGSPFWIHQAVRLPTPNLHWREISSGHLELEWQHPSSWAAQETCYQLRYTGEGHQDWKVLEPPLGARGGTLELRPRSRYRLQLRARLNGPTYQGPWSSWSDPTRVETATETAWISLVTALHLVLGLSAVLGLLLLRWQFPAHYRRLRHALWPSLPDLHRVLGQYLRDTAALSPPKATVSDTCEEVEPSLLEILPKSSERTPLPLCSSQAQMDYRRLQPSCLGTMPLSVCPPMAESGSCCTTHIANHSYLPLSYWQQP

c-mpl [6] = biological target: T3, c-mpl (Homo sapiens, UniProt P40238); conditions: cited from earlier work
T3 sequence (P40238 26-635): T2 sequence (P40238 26-635)

Hu BM CD34 = conditions: in vitro activity; read-out: Hu BM CD34 differentiation assay: EC50; cited from earlier work
c-mpl [7] = biological target: T4, c-mpl (Mus musculus, UniProt Q08351); conditions: cited from earlier work
T4 sequence (Q08351 26-625): T1 sequence (Q08351 26-625)

Compound | cross-reactivity to dog receptors (dog receptors) | cross-reactivity to mouse receptors (mouse receptors) | cross-reactivity to rat receptors (rat receptors) | cross-reactivity: chimpanzee (c-mpl [1]) | T1/2 [2] | cross-reactivity: cat (c-mpl [3]) | cross-reactivity: cynomolgus macaques (c-mpl [4]) | Binding site [5] | species specificity (c-mpl [6]) | EC50 (Hu BM CD34) | cross-reactivity: mouse (c-mpl [7])
CCC(C)C(N)C(=O)NC(CCC(=O)O)C(=O)NCC(=O)N1CCCC1C(=O)NC(C(=O)NC(CC(C)C)C(=O)NC(CCCNC(=N)N)C(=O)NC(CCC(N)=O)C(=O)NC(Cc1ccc2ccccc2c1)C(=O)NC(CC(C)C)C(=O)NC(C)C(=O)NC(C)C(=O)NC(CCCNC(=N)N)C(=O)N(C)CC(=O)NC(CCCCNC(=O)CN(C)C(=O)C(CCCNC(N)N)NC(=O)C(C)NC(=O)C(C)NC(=O)C(CC(C)C)NC(=O)C(Cc1ccc2ccccc2c1)NC(=O)C(CCC(N)=O)NC(=O)C(CCCNC(=N)N)NC(=O)C(CC(C)C)NC(=O)C(NC(=O)C1CCCN1C(=O)CNC(=O)C(CCC(=O)O)NC(=O)C(NC)C(C)CC)C(C)O)C(N)=O)C(C)O (centres unmarked) [peg-TPOmp] (I: H-IEGPTLRQ[2Nal]LAAR[Sar]K-NH2 / II: H-[NMeI]EGPTLRQ[2Nal]LAA[X1][Sar]; amide I:15-II:C; configuration not given here) | Cross-reactive to mouse, rat, and dog receptors | Cross-reactive to mouse, rat, and dog receptors | Cross-reactive to mouse, rat, and dog receptors |  |  |  |  |  |  |  | 
CC1=NN(c2ccc(C)c(C)c2)C(=O)/C1=N\Nc1cccc(-c2cccc(C(=O)O)c2)c1O [SB297115/Eltrombopag] |  |  |  | Cross-reactivity: chimpanzee | T1/2 = 12 hr | No cross-reactivity: cynomolgus macaques, cat, mouse, etc. | No cross-reactivity: cynomolgus macaques, cat, mouse, etc. | Binding site: a hu c-mpl transmembrane domain (His499, Thr496) | High species specificity | ~0.1 µM | No cross-reactivity: cynomolgus macaques, cat, mouse, etc.
